From EPA's ToxValDB 9.5 (doi:10.2903/j.efsa.2010.1554) come the findings set out here.

One data set has as its system Anas platyrhynchos. The note with it: for LD50: oral, mortality.
Another data set concerns Apis mellifera. The conditions noted are these: acute; duration: 48 hours; dermal; mortality.
Another data set relates to Canidae. The conditions noted are these: chronic; duration: 1 years; oral; Dog Other; organ weight.
The next data set relates to Colinus virginianus. The note with it: acute, oral, mortality.
The test system of a further data set is Daphnia magna. The note with it: chronic/long-term; duration: 21 days; reproduction.
A further data set deals with Rattus norvegicus. The conditions noted are these: for NOAEL: reproduction developmental.

In brackets after ≈: the same amount, converted by molar mass.

For orientation: NOAEL means the highest dose or exposure tested at which no adverse effect was seen. In the case of `COc1cc(OC)nc(NC(=O)NS(=O)(=O)c2c(-c3nnn(C)n3)cnn2C)n1` [Azimsulfuron], the LD50 is greater than 2250 mg/kg-day in the data set on Anas platyrhynchos (acute, unspecified); greater than 2040 mg/kg-day in the data set on Anas platyrhynchos (short-term, feed); greater than 25 µg/piece in the data set with Apis mellifera; greater than 3150 mg/kg-day in the data set on Colinus virginianus (diet); greater than 2250 mg/kg-day in the data set on Colinus virginianus; greater than 5000 mg/kg-day in the data set with Rattus norvegicus (acute, oral, mortality). Moreover, the NOEL in the data set on Anas platyrhynchos (reproductive) stood at 172 mg/kg-day. For the same molecule, the results for the NOAEL with Canidae, in the data set on Rattus norvegicus (organ weight) and in the data set with Rattus norvegicus (reproduction) were 17.9 mg/kg-day, 9.6 mg/kg-day and 76.6 mg/kg-day, respectively. For the same molecule, the NOEC was 5.4 mg/L in the data set with Daphnia magna; 6.3 mg/L with Oncorhynchus mykiss (chronic/long-term, duration: 90 days, time to hatch); 12.5 mg/kg in the data set on Tagia sp. (chronic/long-term, duration: 56 days, reproduction). For the same molecule, the LC50 in the data set with Oncorhynchus mykiss (acute, duration: 96 hours, mortality) was 154 µg/mL (≈ 363 µM); in the data set on Tagia sp. (acute, duration: 14 days, mortality) it was greater than 1000 mg/kg.
